The source of these data is ChEMBL document CHEMBL1158889, “Antineoplastic agents 500. Narcistatin” (J Nat Prod, 2003).

For one data set, the system named is P388. Nature of the data set: Cytotoxicity against mouse P388 cells. The conditions noted are these: for EC50: read-out: ED50 (the source's name). Format: functional.
The test system of another data set is BXPC-3. As to the kind of experiment: Cytotoxicity against human BxPC3 cells. In kind it is functional.
A further data set relates to MCF7. As to the kind of experiment: Cytotoxicity against human MCF7 cells. In kind it is functional.
For another data set, the system named is SF-268. As to the kind of experiment: Cytotoxicity against human SF268 cells. In kind it is functional.
A further data set deals with NCI-H460. Nature of the data set: Cytotoxicity against human NCI-H460 cells. Format: functional.
The test system of another data set is KM-20L2. Nature of the data set: Cytotoxicity against human KM20L2 cells. In kind it is functional.
Another data set has as its system DU-145. As to the kind of experiment: Cytotoxicity against human DU145 cells. In kind it is functional.
The next data set is described as follows: physchem. The conditions noted are these: aqueous (not further specified).
For data set [1] the following is noted: buffer.
Description: Aqueous solubility of the compound

Values after ≈ are worked out from the molar mass of the structure shown. A value given as a limit tells only on which side of the number the result lay.

Description for physchem: Aqueous solubility of the compound

As a reminder, the GI50 is the concentration that inhibits growth by half. Low readings indicate greater sensitivity of the cells, high ones lower sensitivity of the cells. Usually solubility stands for how much of the substance goes into solution per volume. Read a high solubility as a readily soluble substance. As for `O=C1N[C@@H]2C(=C[C@H](O)[C@H]3OP(=O)([O-])O[C@H]32)c2cc3c(c([O-])c21)OCO3.[Mg+2]` [MAGNESIUM NARCISTATIN], the EC50 in the data set with P388 came to 0.17 µg/mL. In addition, the concentration for 50% growth inhibition (GI50) in the data set on BXPC-3 was determined as 0.19 µg/mL; in the data set on MCF7 it was 0.25 µg/mL; in the data set on SF-268, 0.14 µg/mL; in the data set on NCI-H460, 0.29 µg/mL; with KM-20L2 it was 0.31 µg/mL; with DU-145, 0.1 µg/mL. The solubility in the data set “physchem” was less than 1500 µg/mL.
As to `O=C1N[C@@H]2C(=C[C@H](O)[C@H]3OP(=O)([O-])O[C@H]32)c2cc3c(c(O)c21)OCO3.O=C1N[C@@H]2C(=C[C@H](O)[C@H]3OP(=O)([O-])O[C@H]32)c2cc3c(c(O)c21)OCO3.[Zn+2]` [ZINC NARCISTATIN], the EC50 in the data set on P388 is 0.0287 µg/mL. The GI50 is 0.069 µg/mL in the data set on BXPC-3; 0.14 µg/mL in the data set on MCF7; 0.053 µg/mL in the data set with SF-268; 0.21 µg/mL in the data set with NCI-H460; 0.16 µg/mL with KM-20L2; 0.016 µg/mL with DU-145. In addition, in “physchem”, the solubility turned out to be 1700 µg/mL.
With `O=C1N[C@@H]2C(=C[C@H](O)[C@H]3OP(=O)([O-])O[C@H]32)c2cc3c(c(O)c21)OCO3.[Cs+]` [CESIUM NARCISTATIN], the EC50 in the data set with P388 came out at 0.183 µg/mL. Moreover, the GI50 is 0.41 µg/mL in the data set with BXPC-3; 0.62 µg/mL in the data set with MCF7; 0.33 µg/mL in the data set with SF-268; greater than 1 µg/mL in the data set on NCI-H460; 0.66 µg/mL in the data set on KM-20L2; 0.13 µg/mL in the data set on DU-145. In addition, the solubility in “physchem” was less than 13000 µg/mL.
As for “MANGANESE NARCISTATIN [listing 1 of 2 here]”, in the data set on P388, the ED50 is 4.27 ×10⁻² µg/ml. The GI50 in the data set on BXPC-3 was found to be 0.049 µg/mL; with MCF7 it was 0.07 µg/mL; with SF-268, 0.04 µg/mL; in the data set on NCI-H460, 0.15 µg/mL; with KM-20L2, 0.13 µg/mL; in the data set on DU-145, 0.034 µg/mL.
For the compound `C1CNCCN1.O=C1N[C@@H]2C(=C[C@H](O)[C@H]3OP(=O)(O)O[C@H]32)c2cc3c(c(O)c21)OCO3` [PIPERAZINIUM NARCISTATIN], the EC50 in the data set on P388 was found to be 0.0378 µg/mL. Moreover, the GI50 was determined as 0.1 µg/mL in the data set on BXPC-3; 0.17 µg/mL with MCF7; 0.099 µg/mL in the data set on SF-268; 0.24 µg/mL in the data set with NCI-H460; 0.22 µg/mL in the data set on KM-20L2; 0.032 µg/mL in the data set with DU-145. Also, in the data set “physchem”, the solubility came to 1900 µg/mL.
`O=C1N[C@@H]2C(=C[C@H](O)[C@H]3OP(=O)([O-])O[C@H]32)c2cc3c(c(O)c21)OCO3.[K+]` [POTASSIUM NARCISTATIN]: the EC50 in the data set with P388 came out at 0.242 µg/mL. Moreover, the concentration for 50% growth inhibition (GI50) was determined as 0.36 µg/mL in the data set with BXPC-3; 0.4 µg/mL with MCF7; 0.19 µg/mL in the data set on SF-268; 0.67 µg/mL with NCI-H460; 0.56 µg/mL in the data set on KM-20L2; 0.26 µg/mL in the data set on DU-145. For the same compound, the solubility in “physchem” was 11000 µg/mL.
On to `O=C1N[C@@H]2C(=C[C@H](O)[C@H]3OP(=O)(O)O[C@H]32)c2cc3c(c(O)c21)OCO3.c1ccncc1` [PYRIDINIUM NARCISTATIN], for which the EC50 in the data set with P388 was 0.191 µg/mL. For the same compound, the GI50 with BXPC-3 stood at 0.22 µg/mL; in the data set with MCF7, 0.27 µg/mL; with SF-268 it was 0.15 µg/mL; with NCI-H460, 0.27 µg/mL; with KM-20L2, 0.34 µg/mL; in the data set with DU-145 it was 0.17 µg/mL.
On to `C=C[C@@H]1CN2CC[C@@H]1C[C@@H]2[C@H](O)c1ccnc2ccc(OC)cc12.O=C1N[C@@H]2C(=C[C@H](O)[C@H]3OP(=O)(O)O[C@H]32)c2cc3c(c(O)c21)OCO3` [QUININIUM NARCISTATIN], for which the EC50 with P388 came to 0.0342 µg/mL. Besides, the GI50 in the data set on BXPC-3 came to 0.051 µg/mL; in the data set with MCF7, 0.12 µg/mL; in the data set with SF-268, 0.045 µg/mL; with NCI-H460, 0.17 µg/mL; in the data set with KM-20L2 it was 0.12 µg/mL; with DU-145 it was 0.013 µg/mL.
As to `O=C1N[C@@H]2C(=C[C@H](O)[C@H]3OP(=O)([O-])O[C@H]32)c2cc3c(c(O)c21)OCO3.[Li+]` [LITHIUM NARCISTATIN], the EC50 in the data set on P388 was 0.121 µg/mL. Moreover, the GI50 was found to be 0.25 µg/mL in the data set on BXPC-3; 0.31 µg/mL in the data set on MCF7; 0.17 µg/mL with SF-268; 0.3 µg/mL in the data set with NCI-H460; 0.26 µg/mL with KM-20L2; 0.13 µg/mL with DU-145. Moreover, the solubility in “physchem” is greater than 50000 µg/mL.
For the compound `C1COCCN1.O=C1N[C@@H]2C(=C[C@H](O)[C@H]3OP(=O)(O)O[C@H]32)c2cc3c(c(O)c21)OCO3` [MORPHOLINIUM NARCISTATIN], the EC50 with P388 is 0.232 µg/mL. Besides, the GI50 in the data set with BXPC-3 is 0.25 µg/mL; in the data set on MCF7, 0.48 µg/mL; in the data set on SF-268, 0.24 µg/mL; in the data set with NCI-H460, greater than 1 µg/mL; with KM-20L2 it was 0.54 µg/mL; with DU-145, 0.14 µg/mL. Moreover, the solubility in “physchem” is greater than 13000 µg/mL.
With `O=C1N[C@@H]2C(=C[C@H](O)[C@H]3OP(=O)([O-])O[C@H]32)c2cc3c(c(O)c21)OCO3.[Na+]` [SODIUM NARCISTATIN], in the data set on P388, the EC50 was 0.255 µg/mL. The GI50 with BXPC-3 is 0.32 µg/mL; in the data set with MCF7, 0.56 µg/mL; with SF-268, 0.23 µg/mL; in the data set on NCI-H460 it was greater than 1 µg/mL; in the data set with KM-20L2, 0.45 µg/mL; in the data set on DU-145, 0.12 µg/mL. Besides, in the data set “physchem”, the solubility worked out at 60000 µg/mL.
Take `O=C1N[C@@H]2C(=C[C@H](O)[C@H]3OP(=O)([O-])O[C@H]32)c2cc3c(c([O-])c21)OCO3.[Ca+2]` [CALCIUM NARCISTATIN]: the EC50 in the data set with P388 was found to be 0.0223 µg/mL. For the same compound, the GI50 amounted to 0.045 µg/mL in the data set with BXPC-3; 0.059 µg/mL in the data set on MCF7; 0.031 µg/mL in the data set with SF-268; 0.12 µg/mL with NCI-H460; 0.059 µg/mL in the data set with KM-20L2; 0.0093 µg/mL with DU-145. For the same compound, in the data set “physchem”, the solubility is less than 1000 µg/mL.
As to `C=C[C@@H]1CN2CC[C@@H]1C[C@H]2[C@@H](O)c1ccnc2ccc(OC)cc12.O=C1N[C@@H]2C(=C[C@H](O)[C@H]3OP(=O)(O)O[C@H]32)c2cc3c(c(O)c21)OCO3` [QUINIDINIUM NARCISTATIN], the EC50 with P388 is 0.271 µg/mL. The concentration for 50% growth inhibition (GI50) with BXPC-3 turned out to be 0.31 µg/mL; in the data set on MCF7, 0.5 µg/mL; in the data set on SF-268, 0.25 µg/mL; with NCI-H460, 0.77 µg/mL; in the data set with KM-20L2 it was 0.58 µg/mL; in the data set on DU-145, 0.22 µg/mL.
In the case of `O=C1N[C@@H]2C(=C[C@H](O)[C@H]3OP(=O)(O)O[C@H]32)c2cc3c(c(O)c21)OCO3` [NARCISTATIN], in the data set on P388, the EC50 was determined as 0.275 µg/mL (≈ 0.745 µM). Also, the GI50 turned out to be 0.33 µg/mL (≈ 0.894 µM) in the data set with BXPC-3; 0.35 µg/mL (≈ 0.948 µM) in the data set with MCF7; 0.22 µg/mL (≈ 0.596 µM) in the data set with SF-268; 0.47 µg/mL (≈ 1.27 µM) with NCI-H460; 0.53 µg/mL (≈ 1.44 µM) in the data set with KM-20L2; 0.16 µg/mL (≈ 0.433 µM) with DU-145. Besides, in “physchem”, the concentration in solution (solubility) was 4000 µg/mL (≈ 10800 µM).
In data set [1], “MANGANESE NARCISTATIN [listing 2 of 2 here]” came in with a solubility of less than 3000 µg/mL.
On to `O=C1N[C@@H]2C(=C[C@H](O)[C@H]3OP(=O)(O)O[C@H]32)c2cc3c(c(O)c21)OCO3.c1c[nH]cn1` [IMIDAZOLIUM NARCISTATIN], for which, in the data set with P388, the EC50 is 0.24 µg/mL. Besides, the 50% growth inhibitory concentration (GI50) with BXPC-3 is 0.45 µg/mL; with MCF7, 0.9 µg/mL; with SF-268 it was 0.38 µg/mL; in the data set on NCI-H460 it was greater than 1 µg/mL; in the data set on KM-20L2, greater than 1 µg/mL; with DU-145, 0.44 µg/mL. Also, the solubility in the data set “physchem” came out at 5800 µg/mL.
